According to US10757937B2, “Sulfonamides that activate ABA receptors” (The Regents of the University of California, priority 2014, dated 2020):
pIC50: −log10 of the molar value. Where two headings read alike, the source gives them in different places.

Assays:
PYL2 = target: T1, PYL2 (Arabidopsis thaliana, UniProt O80992); experiment: receptor-mediated PP2C (HAB1) inhibition in vitro assay; assay type: biochemical; conditions: for pIC50: Table VII, read-out: PP2C Dose Curves PYL2 (IC50); for remaining activity at 50 µM: 50 uM of the test compound; for IC50: Table XII-B, calculated from dose curves, read-out: PP2C Activity (IC50 in uM) PYL2
T1 construct: 6X-His; made in house; host or cells: E. coli BL21[DE3]pLysS
T1 sequence (O80992 1-190): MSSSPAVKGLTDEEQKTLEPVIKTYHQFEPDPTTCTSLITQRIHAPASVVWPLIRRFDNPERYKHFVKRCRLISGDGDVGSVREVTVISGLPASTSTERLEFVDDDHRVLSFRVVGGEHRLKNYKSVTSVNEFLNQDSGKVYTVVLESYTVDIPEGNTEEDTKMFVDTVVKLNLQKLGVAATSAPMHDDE
T1 sequence (Q9CAJ0 23-511 partner): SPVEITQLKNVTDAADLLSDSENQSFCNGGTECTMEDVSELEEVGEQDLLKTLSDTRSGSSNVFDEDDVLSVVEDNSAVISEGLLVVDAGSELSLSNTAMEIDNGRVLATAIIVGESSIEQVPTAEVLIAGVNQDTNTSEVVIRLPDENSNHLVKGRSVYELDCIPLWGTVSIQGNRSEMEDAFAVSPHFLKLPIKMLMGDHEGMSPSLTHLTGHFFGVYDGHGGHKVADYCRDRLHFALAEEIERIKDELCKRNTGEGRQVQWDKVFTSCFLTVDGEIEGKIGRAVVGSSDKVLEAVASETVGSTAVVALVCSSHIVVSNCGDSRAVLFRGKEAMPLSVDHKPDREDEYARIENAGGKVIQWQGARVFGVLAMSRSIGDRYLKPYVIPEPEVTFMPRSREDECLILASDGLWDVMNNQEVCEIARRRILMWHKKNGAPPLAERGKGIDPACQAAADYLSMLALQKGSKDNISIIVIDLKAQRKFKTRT
In short: (§1)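 Compounds, tested at 25 μM or 50 uM with ABA at 10 uM, were incubated with recombinant receptor and 50 nM GST-HAB1 (2:1 ratio) in MnCl2-containing Tris-OAc buffer, pH 7.9. Phosphatase activity was followed by 4-methylumbelliferyl-phosphate fluorescence.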

PYL9 = target: T2, PYL9 (Arabidopsis thaliana, UniProt Q84MC7); experiment: as above; assay type: biochemical; conditions: for pIC50: Table VII, read-out: PP2C Dose Curves PYL9 (IC50); for remaining activity at 25 µM: compound at 25 μM, control without agonist = 100%; for PYL9 agonist potency and selectivity: five- and six-membered rings at alpha carbon; for remaining activity at 50 µM: 50 uM of the test compound; for IC50: Table XII-B, calculated from dose curves, read-out: PP2C Activity (IC50 in uM) PYL9
T2 construct: 6X-His; made in house; host or cells: E. coli BL21[DE3]pLysS
T2 sequence (Q84MC7 1-187): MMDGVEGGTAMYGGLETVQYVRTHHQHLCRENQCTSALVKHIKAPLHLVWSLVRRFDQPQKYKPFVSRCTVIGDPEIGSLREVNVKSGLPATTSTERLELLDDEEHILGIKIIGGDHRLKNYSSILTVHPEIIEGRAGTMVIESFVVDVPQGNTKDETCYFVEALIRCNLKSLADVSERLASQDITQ
T2 sequence (Q9CAJ0 23-511 partner): T1 sequence (Q9CAJ0 23-511 partner)
In short: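 Fluorogenic readout: 4-methylumbelliferyl-phosphate hydrolysis by 50 nM GST-HAB1 plus 2:1 His-receptor; Tris-OAc pH 7.9, NaCl, 1 mM MnCl2, β-ME. Compounds at 25 μM or 50 uM single dose; IC50 from dose curves for selected compounds.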

PYR1 = target: T3, PYR1 (Arabidopsis thaliana, UniProt O49686); experiment: as above; assay type: biochemical; conditions: for remaining activity at 50 µM: 50 uM of the test compound; for IC50: Table XII-B, calculated from dose curves, read-out: PP2C Activity (IC50 in uM) PYR1
T3 construct: 6X-His; made in house; host or cells: E. coli BL21[DE3]pLysS
T3 sequence (O49686 1-191): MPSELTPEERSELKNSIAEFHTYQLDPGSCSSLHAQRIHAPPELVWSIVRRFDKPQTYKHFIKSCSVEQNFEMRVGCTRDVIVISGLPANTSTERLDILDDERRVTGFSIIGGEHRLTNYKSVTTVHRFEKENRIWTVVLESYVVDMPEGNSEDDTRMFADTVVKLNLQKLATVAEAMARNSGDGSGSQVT
T3 sequence (Q9CAJ0 23-511 partner): T1 sequence (Q9CAJ0 23-511 partner)
In short: as §1

[1] = system: Arabidopsis seed germination and hypocotyl growth; experiment: Arabidopsis seed germination and hypocotyl growth; assay type: in vivo; conditions: for minimal effective concentration: Arabidopsis thaliana; for Hypocotyl Growth Inhibition / Germination Inhibition: Germination Inhibition II, tested at 10 and 50 uM; for Hypocotyl Growth Inhibition: lowest concentration that inhibited hypocotyl growth in wells where seeds germinated; for Germination Inhibition: lowest of the two concentrations that inhibited
In short: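 Wild-type seeds germinated on ½× Murashige and Skoog medium with compound at 10 and 50 uM, or in a later series at 1, 5, 10, 25 and 50 uM. Reported value is the lowest tested concentration that inhibited germination or hypocotyl growth in wells where seeds germinated.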

[2] = Table VIII, tested at 10 or 50 μM, ABA at 1 μM, lowest inhibiting concentration, − = none, read-out: Germination Inhibition
[3] = Table VIII, tested at 10 or 50 μM, lowest inhibiting concentration, − = none, read-out: Hypocotyl Growth Inhibition

| SMILES | pIC50 (PYL9) | remaining activity at 25 µM (PYL9) | minimal effective concentration [1, 2] | minimal effective concentration [1, 3] | Hypocotyl Growth Inhibition ([1]; − = none) | Germination Inhibition ([1]; − = none) | pIC50 (PYL2) | other results |
| --- | --- | --- | --- | --- | --- | --- | --- | --- |
| CC1=CC(=O)CC(C)(C)[C@@]1(O)/C=C/C(C)=C\C(=O)O [ABA, Abscisic acid, reference compound] |  |  |  |  |  |  |  | PP2C Activity PYL2 (PYL2; ABA (10 μM)): 6.1; PP2C Activity PYL9 (PYL9; ABA (10 μM)): 6.3; PP2C Activity PYR1 (PYR1; ABA (10 μM)): 6.0 |
| CC(C)(C(=O)NS(=O)(=O)Cc1ccc([N+](=O)[O-])cc1)c1ccccc1 [Compound 3] | 5.52 | 18% | 50 µM | 10 µM | 10 µM | 50 µM |  |  |
| CC(C)(C(=O)NS(=O)(=O)Cc1ccc(C#N)cc1)c1ccc(Cl)cc1 [Compound 6] | 5.05 | 32% | 50 µM | 10 µM | 10 µM | 50 µM | < 4.30 |  |
| CC(C)(C(=O)NS(=O)(=O)Cc1ccc(C#N)cc1)c1ccc(Cl)c(Cl)c1 [Compound 7] | 4.73 | 38% | 50 µM | 10 µM | 10 µM | 50 µM | < 4.30 |  |
| CC(C)(C(=O)NS(=O)(=O)Cc1ccc(C#N)cc1)c1ccc(F)cc1 [Compound 13] | 5.79 | 17% | 10 µM | 10 µM |  | 10 µM | < 4.30 | minimal effective concentration ([1]; Germination Effects III, tested at 1, 5, 10, 25 and 50 uM, lowest concentration inhibiting hypocotyl growth, — = none, read-out: Growth Inhibition): 5 µM; minimal effective concentration ([1]; Germination Effects III, tested at 1, 5, 10, 25 and 50 uM, lowest inhibiting concentration, — = none, read-out: Germination Inhibition): 10 µM |
| CC(C)(C(=O)NS(=O)(=O)Cc1ccc(C#N)cc1)c1cccc(C#N)c1 [Compound 18] | 5.08 | 34% |  |  |  |  | < 4.30 |  |
| CC(C)(C(=O)NS(=O)(=O)Cc1ccc(C#N)cc1)c1ccccc1 [Compound 23] | 5.73 |  | 50 µM | 10 µM | 10 µM | 50 µM |  |  |
| N#Cc1ccc(CS(=O)(=O)NC(=O)C2(c3ccc(F)cc3)CCCC2)cc1 [Compound 24] | 6.22 | 10% | 10 µM |  |  | 10 µM |  | PYL9 agonist potency and selectivity (PYL9): potent and relatively selective PYL9 agonists; pIC50 (PYR1; Table VII, read-out: PP2C Dose Curves PYR1 (IC50)): < 4.30 |
| N#Cc1ccc(CS(=O)(=O)NC(=O)C2(c3ccccc3F)CCCC2)cc1 [Compound 25] | 5.17 | 21% | 50 µM | 10 µM | 10 µM | 50 µM |  |  |
| N#Cc1ccc(CS(=O)(=O)NC(=O)C2(c3cccc(F)c3)CCCC2)cc1 [Compound 26] | 5.15 | 18% | 50 µM | 10 µM | 10 µM | 50 µM |  |  |
| N#Cc1ccc(CS(=O)(=O)NC(=O)C2(c3ccccc3)CCC2)cc1 [Compound 29] | 5.90 | 14% | 50 µM | 10 µM | 10 µM | 50 µM |  |  |
| N#Cc1ccc(CS(=O)(=O)NC(=O)C2(c3ccc(Br)cc3)CC2)cc1 [Compound 30] | < 4.30 | 69% |  | 50 µM | 50 µM |  | < 4.30 |  |
| N#Cc1ccc(CS(=O)(=O)NC(=O)C2(c3ccc(F)cc3)CCC2)cc1 [Compound 32] | 5.85 | 12% | 50 µM | 10 µM | 10 µM | 50 µM |  |  |
| N#Cc1ccc(CS(=O)(=O)NC(=O)C2(c3ccc(F)cc3)CC2)cc1 [Compound 35] | 4.57 | 49% |  | 10 µM | 10 µM |  |  |  |
| COc1ccccc1C1(C(=O)NS(=O)(=O)Cc2ccc(C#N)cc2)CCC1 [Compound 42] | 4.76 | 42% | 50 µM | 10 µM | 10 µM | 50 µM |  |  |
| Cc1cccc(C2(C(=O)NS(=O)(=O)Cc3ccc(C#N)cc3)CCCC2)c1 [Compound 43] | 4.55 | 46% | 50 µM | 10 µM | 10 µM | 50 µM |  |  |
| Cc1ccccc1C1(C(=O)NS(=O)(=O)Cc2ccc(C#N)cc2)CC1 [Compound 44] | 4.67 | 50% |  | 50 µM | 50 µM |  | < 4.30 |  |
| N#Cc1ccc(CS(=O)(=O)NC(=O)C2(c3cccc(C#N)c3)CC2)cc1 [Compound 50] | 5.24 | 18% |  |  |  |  | 4.26 |  |
| N#Cc1ccc(CS(=O)(=O)NC(=O)C2(c3ccc(F)cc3)CCCCC2)cc1 [Compound 51] | 7.40 | 8% | 10 µM |  |  | 10 µM |  | PYL9 agonist potency and selectivity (PYL9): potent and relatively selective PYL9 agonists |
| O=C(NS(=O)(=O)Cc1ccc([N+](=O)[O-])cc1)C1(c2ccccc2)CCCCC1 [Compound 63] |  |  |  |  |  |  |  | remaining activity at 50 µM (PYL2): 115%; IC50 (PYL2): > 50 µM; remaining activity at 50 µM (PYL9): 75.5%; IC50 (PYL9): > 50 µM; remaining activity at 50 µM (PYR1): 101%; IC50 (PYR1): > 50 µM |
| O=C(NS(=O)(=O)Cc1ccc(F)cc1)C1(c2ccccc2)CCCCC1 [Compound 64] |  |  |  |  |  |  |  | remaining activity at 50 µM (PYL2): 107%; IC50 (PYL2): > 50 µM; remaining activity at 50 µM (PYL9): 91.1%; IC50 (PYL9): > 50 µM; remaining activity at 50 µM (PYR1): 98.4%; IC50 (PYR1): > 50 µM |
| N#Cc1ccc(CS(=O)(=O)NC(=O)C(c2ccccc2)c2ccccc2)cc1 [Compound 71, N-[(4-Cyanophenyl)methanesulfonyl]-2,2-diphenylacetamide] |  |  |  |  |  |  |  | remaining activity at 50 µM (PYL2): 102%; IC50 (PYL2): > 50 µM; remaining activity at 50 µM (PYL9): 81.8%; IC50 (PYL9): > 50 µM; remaining activity at 50 µM (PYR1): 97.9%; IC50 (PYR1): > 50 µM |
| N#Cc1ccc(CS(=O)(=O)NC(=O)C(c2ccc(F)cc2)c2ccc(F)cc2)cc1 [Compound 72, N-[(4-Cyanophenyl)methanesulfonyl]-2,2-bis(4-fluorophenyl)acetamide] |  |  |  |  |  |  |  | remaining activity at 50 µM (PYL2): 100%; IC50 (PYL2): > 50 µM; remaining activity at 50 µM (PYL9): 85.8%; IC50 (PYL9): > 50 µM; remaining activity at 50 µM (PYR1): 93.9%; IC50 (PYR1): > 50 µM |
